The values below come from patent publication US10590078B2, “Sodium channel blockers” (Daewoong Pharmaceutical Co., Ltd., priority 2015, dated 2020).

As a reminder, the pIC50 is −log10 of the IC50, conventionally taken in molar units.

pIC50: −log10 of the molar value. Bounds are passed on as bounds.

In this assay the target is human sodium ion channel 1.7 (hNav1.7) (Homo sapiens, UniProt Q15858). Put plainly: Blocking effect against sodium ion channel Nav1.7, IonFlux16 auto patch clamp in hNav1.7 HEK293 cells. Format: cell-based. The note with it: hNav1.7 HEK293 cells; inhibition of peak current after 50 seconds treatment; eight concentrations; read-out: IC50. In general terms: In patch-clamp work, channel activity is measured electrically.
human sodium ion channel 1.7 (hNav1.7), sequence (Q15858 whole entry): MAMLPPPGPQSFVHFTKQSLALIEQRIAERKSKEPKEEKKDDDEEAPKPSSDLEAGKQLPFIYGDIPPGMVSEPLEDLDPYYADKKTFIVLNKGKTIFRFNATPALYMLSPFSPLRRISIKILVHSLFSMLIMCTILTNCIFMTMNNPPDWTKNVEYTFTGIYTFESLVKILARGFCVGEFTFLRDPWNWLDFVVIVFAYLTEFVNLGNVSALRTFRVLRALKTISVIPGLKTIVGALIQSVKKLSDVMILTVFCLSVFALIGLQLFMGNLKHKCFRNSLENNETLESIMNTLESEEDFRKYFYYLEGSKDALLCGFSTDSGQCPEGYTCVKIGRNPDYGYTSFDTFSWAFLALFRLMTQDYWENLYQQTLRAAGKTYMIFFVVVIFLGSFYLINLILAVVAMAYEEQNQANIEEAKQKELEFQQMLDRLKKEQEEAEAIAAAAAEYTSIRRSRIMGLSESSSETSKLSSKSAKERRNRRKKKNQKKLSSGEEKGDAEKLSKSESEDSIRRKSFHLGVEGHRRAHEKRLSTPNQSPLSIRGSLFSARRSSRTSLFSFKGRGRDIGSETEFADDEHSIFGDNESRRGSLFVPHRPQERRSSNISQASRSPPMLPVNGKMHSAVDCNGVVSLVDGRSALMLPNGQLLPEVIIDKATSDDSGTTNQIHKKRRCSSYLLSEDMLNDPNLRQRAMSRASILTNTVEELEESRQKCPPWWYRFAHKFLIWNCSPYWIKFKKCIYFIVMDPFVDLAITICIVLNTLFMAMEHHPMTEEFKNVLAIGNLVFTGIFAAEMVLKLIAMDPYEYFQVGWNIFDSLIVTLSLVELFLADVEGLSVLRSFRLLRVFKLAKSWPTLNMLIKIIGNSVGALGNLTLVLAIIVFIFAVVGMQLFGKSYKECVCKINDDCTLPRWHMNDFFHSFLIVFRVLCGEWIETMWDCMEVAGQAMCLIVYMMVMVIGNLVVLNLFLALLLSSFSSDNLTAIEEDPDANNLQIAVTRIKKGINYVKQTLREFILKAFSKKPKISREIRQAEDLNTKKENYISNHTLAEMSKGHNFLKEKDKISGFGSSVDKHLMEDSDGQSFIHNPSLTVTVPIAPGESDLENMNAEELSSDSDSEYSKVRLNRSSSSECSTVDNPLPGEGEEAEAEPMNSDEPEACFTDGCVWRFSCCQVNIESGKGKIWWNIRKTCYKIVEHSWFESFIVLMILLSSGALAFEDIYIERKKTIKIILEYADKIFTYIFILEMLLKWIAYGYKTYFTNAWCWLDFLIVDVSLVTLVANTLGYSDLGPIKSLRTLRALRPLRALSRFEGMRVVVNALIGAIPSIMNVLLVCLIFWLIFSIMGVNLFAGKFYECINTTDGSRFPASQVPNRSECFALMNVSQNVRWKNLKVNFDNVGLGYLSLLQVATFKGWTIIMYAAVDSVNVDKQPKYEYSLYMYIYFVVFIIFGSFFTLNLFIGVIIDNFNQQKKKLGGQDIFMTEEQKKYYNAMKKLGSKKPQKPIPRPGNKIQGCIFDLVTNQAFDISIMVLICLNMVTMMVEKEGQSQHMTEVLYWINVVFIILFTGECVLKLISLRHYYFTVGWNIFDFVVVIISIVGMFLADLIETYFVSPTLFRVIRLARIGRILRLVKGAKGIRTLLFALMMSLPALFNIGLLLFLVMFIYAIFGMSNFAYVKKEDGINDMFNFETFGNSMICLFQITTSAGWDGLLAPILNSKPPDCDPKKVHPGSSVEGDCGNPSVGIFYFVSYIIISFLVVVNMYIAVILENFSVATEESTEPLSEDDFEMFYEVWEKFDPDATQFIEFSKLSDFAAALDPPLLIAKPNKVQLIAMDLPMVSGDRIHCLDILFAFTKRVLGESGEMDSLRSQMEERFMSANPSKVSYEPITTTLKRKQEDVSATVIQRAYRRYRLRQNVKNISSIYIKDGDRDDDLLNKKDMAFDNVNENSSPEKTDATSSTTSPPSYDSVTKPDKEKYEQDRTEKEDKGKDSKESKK
For `CS(=O)(=O)NC(=O)c1cc(Cl)c(-n2nc(C3=CCNCC3)c3cc(Cl)ccc32)cc1F` [Example 132, 5-chloro-4-(5-chloro-3-(1,2,3,6-tetrahydropyridin-4-yl)-1H-indazol-1-yl)-2-fluoro-N-(methylsulfonyl)benzamide], the pIC50 is less than 5.00.

Take `CS(=O)(=O)NC(=O)c1cc(Cl)c(-n2nc(-c3cccc(C#N)c3)c3cc(F)ccc32)cc1F` [Example 166, 5-chloro-4-(3-(3-cyanophenyl)-5-fluoro-1H-indazol-1-yl)-2-fluoro-N-(methylsulfonyl)benzamide]: the negative-log IC50 (pIC50) was 6.64.

For `Cc1nn(-c2cc(F)c(C(=O)NS(C)(=O)=O)cc2Cl)c2ccc(OCc3ccccc3)cc12` [Example 30, 4-(5-(benzyloxy)-3-methyl-1H-indazol-1-yl)-5-chloro-2-fluoro-N-(methylsulfonyl)benzamide], the pIC50 was 6.61.

As for `Cc1cccc(-c2nn(-c3cc(F)c(C(=O)NS(C)(=O)=O)cc3Cl)c3ccc(F)cc23)c1` [Example 152, 5-chloro-2-fluoro-4-(5-fluoro-3-(m-tolyl)-1H-indazol-1-yl)-N-(methylsulfonyl)benzamide], the pIC50 was 7.10.

For the molecule `CS(=O)(=O)NC(=O)c1cc(F)c(-n2nc(-c3cccc(C#N)c3)c3cc(Cl)ccc32)cc1Cl` [Example 109, 2-chloro-4-(5-chloro-3-(3-cyanophenyl)-1H-indazol-1-yl)-5-fluoro-N-(methylsulfonyl)benzamide], the pIC50 was 6.35.

In the case of `CS(=O)(=O)NC(=O)c1ccc(-n2nc(-c3cccc(C#N)c3)c3cc(Cl)ccc32)c(F)c1` [Example 119, 4-(5-chloro-3-(3-cyanophenyl)-1H-indazol-1-yl)-3-fluoro-N-(methylsulfonyl)benzamide], the pIC50 was 5.75.

Turning to `COc1ccccc1-c1nn(-c2cc(F)c(C(=O)NS(C)(=O)=O)cc2Cl)c2ccccc12` [Example 174, 5-chloro-2-fluoro-4-(3-(2-methoxyphenyl)-1H-indazol-1-yl)-N-(methylsulfonyl)benzamide], the negative-log IC50 (pIC50) was 6.07.

For `CS(=O)(=O)NC(=O)c1cc(Cl)c(-n2nc(Cl)c3cc(-c4cc(Cl)ccc4F)ccc32)cc1F` [Example 254, 5-chloro-4-(3-chloro-5-(5-chloro-2-fluorophenyl)-1H-indazol-1-yl)-2-fluoro-N-(methylsulfonyl)benzamide], the pIC50 is 6.38.

For the molecule `CS(=O)(=O)NC(=O)c1cc(Cl)c(-n2cc(-c3ccc(F)cc3F)c3cc(Cl)cnc32)cc1F` [Example 186, 5-chloro-4-(5-chloro-3-(2,4-difluorophenyl)-1H-pyrrolo[2,3-b]pyridin-1-yl)-2-fluoro-N-(methylsulfonyl)benzamide], the pIC50 was 7.10.

Regarding `CS(=O)(=O)NC(=O)c1cc(Cl)c(-n2nc(-c3ccc(F)cc3Cl)c3ccccc32)cc1F` [Example 175, 5-chloro-4-(3-(2-chloro-4-fluorophenyl)-1H-indazol-1-yl)-2-fluoro-N-(methylsulfonyl)benzamide], the pIC50 was 7.10.

Turning to `CS(=O)(=O)NC(=O)c1cc(Cl)c(-n2nc(Cl)c3cc(Oc4ccc(F)nc4)ccc32)cc1F` [Example 47, 5-chloro-4-(3-chloro-5-((6-fluoropyridin-3-yl)oxy)-1H-indazol-1-yl)-2-fluoro-N-(methylsulfonyl)benzamide], the pIC50 was 6.36.

Consider `CS(=O)(=O)NC(=O)c1cc(Cl)c(-n2cc(-c3cccc(F)c3)c3cc(Cl)cnc32)cc1F` [Example 190, 5-chloro-4-(5-chloro-3-(3-fluorophenyl)-1H-pyrrolo[2,3-b]pyridin-1-yl)-2-fluoro-N-(methylsulfonyl)benzamide], for which the pIC50 was 6.77.

On to `CS(=O)(=O)NC(=O)c1cc(Cl)c(-n2cc(-c3ccc(Cl)cc3)c3cc(Cl)cnc32)cc1F` [Example 195, 5-chloro-4-(5-chloro-3-(4-chlorophenyl)-1H-pyrrolo[2,3-b]pyridin-1-yl)-2-fluoro-N-(methylsulfonyl)benzamide], for which the pIC50 was 7.10.
